Source: publication PMC9126943, “ADAMTS4-specific MR probe to assess aortic aneurysms in vivo using synthetic peptide libraries” (Nature Communications, 2022)
Values joined by “and” are separate entries in the source; they are usually repeats but may differ in a detail not shown here. Equal values may be shown once. Where a SMILES comes first, the peptide text is derived from it. Bridges are numbered along the chain shown (N, C = ends). The star is where a group is joined. Cy5(nonsulfonated) = CN1C(=CC=CC=CC2=[N+](CCCCCC(=O)*)c3ccccc3C2(C)C)C(C)(C)c2ccccc21; DOTA = O=C(O)CN1CCN(CC(=O)O)CCN(CC(=O)*)CCN(CC(=O)O)CC1

Legend:
[1] = molecular target: T1, ADAMTS4 in the aneurysmal aortic wall of ApoE−/− mice (Mus musculus, UniProt Q8BNJ2); assay: In vivo competition experiment
T1 construct: from tissue
T1 sequence (Q8BNJ2 209-833): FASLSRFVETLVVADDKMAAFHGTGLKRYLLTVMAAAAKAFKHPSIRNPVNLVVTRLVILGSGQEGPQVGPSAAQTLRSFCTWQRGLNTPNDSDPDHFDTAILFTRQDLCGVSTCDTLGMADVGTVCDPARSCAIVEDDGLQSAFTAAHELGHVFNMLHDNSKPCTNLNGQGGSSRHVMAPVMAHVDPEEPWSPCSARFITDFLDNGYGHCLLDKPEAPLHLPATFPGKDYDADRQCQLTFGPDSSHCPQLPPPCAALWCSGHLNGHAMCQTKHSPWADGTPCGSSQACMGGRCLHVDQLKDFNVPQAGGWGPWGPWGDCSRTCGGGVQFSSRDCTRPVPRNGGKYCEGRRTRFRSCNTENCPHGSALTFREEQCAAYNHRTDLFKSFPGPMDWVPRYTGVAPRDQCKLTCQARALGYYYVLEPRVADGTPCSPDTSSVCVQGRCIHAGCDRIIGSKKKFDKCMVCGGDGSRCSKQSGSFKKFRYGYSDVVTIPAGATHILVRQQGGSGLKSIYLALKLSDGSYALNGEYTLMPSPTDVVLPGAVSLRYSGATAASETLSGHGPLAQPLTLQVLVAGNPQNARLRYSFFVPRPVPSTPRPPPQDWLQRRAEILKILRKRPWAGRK
Protocol: An in vivo competition experiment was performed in 3 ApoE^−/− mice (n = 3) 4 weeks after AAA induction. On day 1, MR imaging was performed prior to and following the intravenous administration of the ADAMTS4-specific probe. On day 2, MRI was performed prior to and after the injection of a 7-fold higher dose of the non-paramagnetic europium-labeled ADAMTS4-specific probe. Then, a clinical dose of the ADAMST4 specific probe (0.13 mmol/kg) was administered with the following imaging after 20 min.
Analysis of resulting MR images was performed using OsiriX (version 7.1, OsiriX Foundation, Bernex, Switzerland). All morphometric measurements were conducted on high-resolution MRI images. In order to assess the signal intensities, regions of interest (ROIs) were measured as areas of signal enhancement, which were co-localized with areas of aneurysmal-aortic tissue. For these areas, the CNR was calculated using the following formula: CNR = (Combined vessel-wall and aneurysmal-aortic-tissue-signal − blood-signal)/standard-deviation-signal (noise). The signal of noise was defined as the standard deviation in pixel intensity from an ROI placed in the background air anterior to the aorta.

ADAMTS4 = molecular target: T2, ADAMTS4 (Homo sapiens, UniProt O75173); assay: MST instrument, ligand-dependent fluorescence change, Cy5-labeled peptides vs ADAMTS4 (incl. alanine scan); type: binding; settings: Cy5-labeled peptide 3 nM, 25 °C, n = 3
T2 construct: This is consistent with the recombinant proteins, we used in the screening process; purchased BioTeZ Berlin-Buch GmbH 30 400 102
T2 sequence (O75173 213-685): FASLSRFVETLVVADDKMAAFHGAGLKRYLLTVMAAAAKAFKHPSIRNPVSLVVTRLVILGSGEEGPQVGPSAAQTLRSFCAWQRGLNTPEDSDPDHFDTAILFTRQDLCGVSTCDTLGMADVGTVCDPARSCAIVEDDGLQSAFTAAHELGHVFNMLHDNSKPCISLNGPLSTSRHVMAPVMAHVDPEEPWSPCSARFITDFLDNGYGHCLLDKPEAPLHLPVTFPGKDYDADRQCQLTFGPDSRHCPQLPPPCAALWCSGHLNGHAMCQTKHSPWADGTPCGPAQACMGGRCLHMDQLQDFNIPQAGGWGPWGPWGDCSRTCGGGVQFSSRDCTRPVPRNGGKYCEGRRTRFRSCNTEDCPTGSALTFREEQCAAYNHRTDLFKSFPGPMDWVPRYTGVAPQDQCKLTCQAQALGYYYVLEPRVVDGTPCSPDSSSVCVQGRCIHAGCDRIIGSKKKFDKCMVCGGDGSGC
Protocol: Microscale thermophoresis (MST) was performed on a Monolith Pico (NanoTemper, Munich, Germany). The Cy5-labeled peptides were diluted into the MST buffer (150 mM NaCl, 50 mM TRIS-HCl, 5 mM CaCl2, and Tween-20) to reach a dilution of 6 nM. ADAMTS4, ADAMTS5, and ADAMTS1 were directly used with the supplied concentration. For ADAMTS4, the starting concentration was 4.96 µM, while for ADAMTS1 it was 4.88 µM and for ADAMTS5 it was 2.46 µM. […] 20 µl of the protein solutions were transferred into a PCR tube. 10 µl of this first vial was transferred into a second vial and mixed by pipetting with 10 µl of the MST buffer. The dilution series was continued 14 times. From tube 16, 10 µl were removed. Into all 16 tubes, 10 µl of the respective peptide solution were added and mixed by pipetting. The samples were incubated for 20 min and subsequently transferred to premium capillaries (NanoTemper, Munich, Germany). The capillaries were transferred into the Monolith tray and measured with 10% excitation power on the pico-red excitation on high MST power at 25 °C. Analysis was performed with MO.Affinity Analysis v3.0.1 (NanoTemper, Munich, Germany) and Origin 2022 (OriginLab Corporation, Northampton, MA). […] We checked for ADAMTS4 and the ADAMTS4-specific-Cy5-labeled probe via a saturation test for specifying the ligand-dependent fluorescence change. Therefore, the three highest ligand concentrations and the three lowest ligand concentrations of the measurement were used and centrifuged for 15 min at 16060 x g at 20 °C. Of each concentration, 7 µl were picked and mixed with 7 µl of a 10 M urea solution each. The samples were heated at 95 °C for 5 min and measured in the MST. […] Each measurement was repeated three times independently and the binding constant was calculated by merging all three measurements. […] The data were normalized using MO Affinity Analysis v3.0.1 and the fraction bound [−] was shown. […] Therefore, the percentage variance of the values to the average was plotted.
All measurements were performed with 10% LED power, high MST power and at 25 °C. The ligand dependent fluorescence change was used for determining the binding. […] The concentrations of the peptide were kept constant (3 nM in the measurement), while the proteins were diluted in the same manner as for ADAMTS4. […] The Cy5-labeled peptides (3 nM in the measurement) were kept constant, while ADAMTS4 was diluted in the same manner for each peptide (n=3 biologically independent measurements for each peptide; the data are presented as mean values ± SD). […] MST: microscale thermophoresis; nM: nanomolar; His: L-histidine; LED: light-emitting diode; n/a: not available; KD: binding constant.

| SMILES | CNR d1 post, individual animals ([1]; day 1, Gd-labeled probe alone) | CNR d2 post, individual animals ([1]; day 2, after 7-fold dose of Eu-labeled probe followed by Gd-labeled probe 0.13 mmol/kg) | binding to ADAMTS4 (ligand-dependent fluorescence change), in words (ADAMTS4) |
| --- | --- | --- | --- |
| N=C(N)NCCC[C@@H]1NC(=O)[C@H](CCCNC(=N)N)NC(=O)[C@H](CO)NC(=O)[C@@H](N)CSSC[C@@H](C(=O)N[C@@H](CO)C(=O)NCC(=O)NCC(=O)N[C@@H](CO)C(=O)NCC(=O)NCC(=O)N[C@@H](CCCCNC(=O)CN2CCN(CC(=O)O)CCN(CC(=O)O)CCN(CC(=O)O)CC2)C(=O)NCC(N)=O)NC(=O)CNC1=O (Gd complex, metal not drawn) [ADAMTS4-specific probe] (H-CSRRGCSGGSGGK(DOTA)G-NH2; disulfide 1-6) | 10.05 and 8.83 and 9.84 | 5.81 and 4.92 and 5.19 | – |
| C[N+]1=C(C=CC=CC=C2N(CCCCCC(=O)NCCCC[C@H](NC(=O)CNC(=O)CNC(=O)[C@H](CO)NC(=O)CNC(=O)CNC(=O)[C@H](CO)NC(=O)[C@@H]3CSSC[C@H](N)C(=O)N[C@@H](CO)C(=O)N[C@@H](CCCNC(=N)N)C(=O)N[C@@H](CCCNC(=N)N)C(=O)NCC(=O)N3)C(=O)NCC(N)=O)c3ccccc3C2(C)C)C(C)(C)c2ccccc21 [Cy5-labeled probe] (H-CSRRGCSGGSGGK(Cy5(nonsulfonated))G-NH2; disulfide 1-6; N-terminus and C-terminus assumed) | – | – | a ligand dependent fluorescence change occurs |
